Measurements: ChEMBL document CHEMBL3407338, “Synthesis and structure-activity relationship of novel 1,4-diazabicyclo[2.2.2]octane derivatives as potent antimicrobial agents” (Eur J Med Chem, 2015)

How the values were obtained:
Format in all cases: functional
Staphylococcus aureus [1] = test: Antimicrobial activity against Staphylococcus aureus ATCC 25923 at 1 ug/ml after 24 hrs by agar diffusion method; details: ATCC 25923, 24 h, read-out: DIZ
Salmonella enterica [2] = test: Antimicrobial activity against Salmonella enterica ATCC 14028 at 1 ug/ml after 24 hrs by agar diffusion method; details: ATCC 14028, 24 h, read-out: DIZ
Candida albicans [3] = test: Antimicrobial activity against Candida albicans ATCC 32354 at 1 ug/ml after 24 hrs by agar diffusion method; details: ATCC 32354, 24 h, read-out: DIZ
Bacillus subtilis [4] = test: Antimicrobial activity against Bacillus subtilis ATCC 6633 at 1 ug/ml after 24 hrs by agar diffusion method; details: ATCC 6633, 24 h, read-out: DIZ
Escherichia coli [5] = test: Antimicrobial activity against Escherichia coli ATCC 25922 at 1 ug/ml after 24 hrs by agar diffusion method; details: ATCC 25922, 24 h, read-out: DIZ
Pseudomonas aeruginosa [6] = test: Antimicrobial activity against Pseudomonas aeruginosa ATCC 9027 at 1 ug/ml after 24 hrs by agar diffusion method; details: ATCC 9027, 24 h, read-out: DIZ
Candida albicans [7] = test: Antimicrobial activity against 10^7 CFU/ml Candida albicans ATCC 32354 after 22 hrs by serial microdilution method; details: ATCC 32354, 22 h
Pseudomonas aeruginosa [8] = test: Antimicrobial activity against 10^7 CFU/ml Pseudomonas aeruginosa ATCC 9027 after 22 hrs by serial microdilution method; details: ATCC 9027, 22 h
Staphylococcus aureus [9] = test: Antimicrobial activity against 10^7 CFU/ml Staphylococcus aureus ATCC 25923 after 22 hrs by serial microdilution method; details: ATCC 25923, 22 h
Salmonella enterica [10] = test: Antimicrobial activity against 10^7 CFU/ml Salmonella enterica ATCC 14028 after 22 hrs by serial microdilution method; details: ATCC 14028, 22 h
Escherichia coli [11] = test: Antimicrobial activity against 10^4 CFU/ml Escherichia coli ATCC 25922 after 22 hrs by serial microdilution method; details: ATCC 25922, 22 h
Staphylococcus aureus [12] = test: Antimicrobial activity against 10^4 CFU/ml Staphylococcus aureus ATCC 25923 after 22 hrs by serial microdilution method; details: ATCC 25923, 22 h
Bacillus subtilis [13] = test: Antimicrobial activity against 10^4 CFU/ml Bacillus subtilis ATCC 6633 after 22 hrs by serial microdilution method; details: ATCC 6633, 22 h
Escherichia coli [14] = test: Antimicrobial activity against 10^7 CFU/ml Escherichia coli ATCC 25922 after 22 hrs by serial microdilution method; details: ATCC 25922, 22 h
Pseudomonas aeruginosa [15] = test: Antimicrobial activity against 10^4 CFU/ml Pseudomonas aeruginosa ATCC 9027 after 22 hrs by serial microdilution method; details: ATCC 9027, 22 h
Salmonella enterica [16] = test: Antimicrobial activity against 10^4 CFU/ml Salmonella enterica ATCC 14028 after 22 hrs by serial microdilution method; details: ATCC 14028, 22 h
Candida albicans [17] = test: Antimicrobial activity against 10^4 CFU/ml Candida albicans ATCC 32354 after 22 hrs by serial microdilution method; details: ATCC 32354, 22 h
Bacillus subtilis [18] = test: Antimicrobial activity against 10^7 CFU/ml Bacillus subtilis ATCC 6633 after 22 hrs by serial microdilution method; details: ATCC 6633, 22 h

| MIC (Candida albicans [7]) [µg/mL] | MIC (Pseudomonas aeruginosa [8]) [µg/mL] | MIC (Staphylococcus aureus [9]) [µg/mL] | MIC (Salmonella enterica [10]) [µg/mL] | MIC (Escherichia coli [11]) [µg/mL] | MIC (Staphylococcus aureus [12]) [µg/mL] | MIC (Bacillus subtilis [13]) [µg/mL] | SMILES | zone of inhibition at 1 µg/mL (Staphylococcus aureus [1]) [mm] | zone of inhibition at 1 µg/mL (Salmonella enterica [2]) [mm] | zone of inhibition at 1 µg/mL (Candida albicans [3]) [mm] | zone of inhibition at 1 µg/mL (Bacillus subtilis [4]) [mm] | zone of inhibition at 1 µg/mL (Escherichia coli [5]) [mm] | zone of inhibition at 1 µg/mL (Pseudomonas aeruginosa [6]) [mm] | MBC (Candida albicans [7]) [µg/mL] | MBC (Pseudomonas aeruginosa [8]) [µg/mL] | MBC (Staphylococcus aureus [9]) [µg/mL] | MBC (Salmonella enterica [10]) [µg/mL] | MBC (Escherichia coli [11]) [µg/mL] | MBC (Staphylococcus aureus [12]) [µg/mL] | MBC (Bacillus subtilis [13]) [µg/mL] | also measured |
| --- | --- | --- | --- | --- | --- | --- | --- | --- | --- | --- | --- | --- | --- | --- | --- | --- | --- | --- | --- | --- | --- |
| – | – | – | – | – | – | – | CC[N+]12CC[N+](CCCCC[N+]34CC[N+](CC)(CC3)CC4)(CC1)CC2 | 0 | 0 | 0 | 0 | 0 | 0 | – | – | – | – | – | – | – | – |
| – | – | – | – | – | – | – | CCC[N+]12CC[N+](CCCCC[N+]34CC[N+](CCC)(CC3)CC4)(CC1)CC2 | 0 | 0 | 0 | 0 | 0 | 0 | – | – | – | – | – | – | – | – |
| – | – | – | – | – | – | – | CCCCCCC[N+]12CC[N+](CCCCC[N+]34CC[N+](CCCCCCC)(CC3)CC4)(CC1)CC2 | 5 | 0 | 0 | 5 | 4 | 0 | – | – | – | – | – | – | – | – |
| < 1.6 | > 100 | 50 | 100 | 12.5 | 12.5 | 25 | CCCCCCCC[N+]12CC[N+](CCCCC[N+]34CC[N+](CCCCCCCC)(CC3)CC4)(CC1)CC2.[Br-].[Br-].[Br-].[Br-] | 8 | 4 | 0 | 10 | 4 | 0 | < 1.6 | > 100 | > 100 | > 100 | 50 | 100 | 50 | MBC (Escherichia coli [14]): 100 µg/mL; MIC (Escherichia coli [14]): 25 µg/mL; MBC (Pseudomonas aeruginosa [15]): 50 µg/mL; MIC (Pseudomonas aeruginosa [15]): 25 µg/mL; MBC (Salmonella enterica [16]): 100 µg/mL; MIC (Salmonella enterica [16]): 100 µg/mL; MBC (Candida albicans [17]): < 1.6 µg/mL; MIC (Candida albicans [17]): < 1.6 µg/mL; MBC (Bacillus subtilis [18]): 100 µg/mL; MIC (Bacillus subtilis [18]): 50 µg/mL |
| < 1.6 | 50 | 12.5 | 25 | 6.3 | 12.5 | 6.3 | CCCCCCCCC[N+]12CC[N+](CCCCC[N+]34CC[N+](CCCCCCCCC)(CC3)CC4)(CC1)CC2.[Br-].[Br-].[Br-].[Br-] | 10 | 9 | 10 | 12 | 10 | 0 | < 1.6 | 100 | 50 | 50 | 12.5 | 25 | 6.3 | MBC (Escherichia coli [14]): 25 µg/mL; MIC (Escherichia coli [14]): 6.3 µg/mL; MBC (Pseudomonas aeruginosa [15]): 12.5 µg/mL; MIC (Pseudomonas aeruginosa [15]): 12.5 µg/mL; MBC (Salmonella enterica [16]): 50 µg/mL; MIC (Salmonella enterica [16]): 12.5 µg/mL; MBC (Candida albicans [17]): < 1.6 µg/mL; MIC (Candida albicans [17]): < 1.6 µg/mL; MBC (Bacillus subtilis [18]): 25 µg/mL; MIC (Bacillus subtilis [18]): 25 µg/mL |
